The test system of one experiment is ES and OS cells. The experiment is described as follows: Alamar Blue cell viability assay, ES and OS panel. The format is cell-based. To be noted: Homo sapiens; range over ES and OS cells. As for the experimental part: Sarcoma cell lines were seeded in 24-well plates in 1X RPMI medium containing 10% fetal bovine serum. Cells were then incubated with DMSO (control) or concentrations of LY5 ranging from 10 nM to 10 μM for 96 hrs. At the end of the incubation period, Alamar Blue (Invitrogen, Carlsbad, CA) was added to cells at one-tenth the volume of the cell culture medium and incubated for 3 hrs at 37° C in the dark. Fluorescence was then measured at an excitation/emissions wavelength of 570/590 nm and emission wavelength of 590 nm.
Fig 2 Biologic activity of LY5 in sarcoma cell lines. Dose response curves for LY5: RMS cell lines (RH30, RD, JR-1), ES cell lines (ES-3, ES-6, ES-7, ES-8), and an OS cell line (OS-17) were treated with LY5 (concentrations ranging from 10 nM to 10 μM) for 96 hours. Cell viability was determined using Alamar Blue staining. IC50 values are indicated for each cell line. Analyses were performed in triplicate and data are plotted as means ± standard deviation.
On the technique in general: Resazurin is reduced to fluorescent resorufin, in cell work by metabolically active cells.

For experiment [1], the system named is RH30, ES-3, ES-7, EW-8 cells. The experiment is described as follows: Combined STAT3 knockdown-LY5 cell viability assay (Alamar Blue). To be noted: NC siRNA or STAT3 siRNA 48 hrs, then 0.5 μM or 1 μM LY5 48 hrs. The experiment is classed as cell-based, human. As for the experimental part:
Cell lines were transfected with 10 nM of AllStars negative control siRNA or human STAT3-targeting siRNA #7 (5’-[…]-3’) (Qiagen, Germantown, MD) using Lipofectamine RNAiMAX (Life Technologies, Carlsbad, CA) according to the manufacturer’s instructions. After 72 hrs of transfection, cells were harvested and lysed for immunoblotting. For the combined STAT3 knockdown–LY5 cell viability assay, negative control siRNA or STAT3 siRNA #7 was transfected into cell lines. After 48 hrs, cells were treated with 0.5 μM or 1 μM of LY5 for another 48 hrs. Cell viability was then analyzed using Alamar Blue as described above.
Fig 6 Effects of LY5 are not mediated via STAT3 inhibition. (A) Antitumor activity of LY5 against OS-1 PDX model of OS. […] After 72 hours of transfection, cells were harvested and analyzed for total (T) STAT3 and GAPDH protein expression by immunoblotting. […] Cell viability was then determined using Alamar Blue staining. […]
(A) ES cell line ES-3 was transfected with either negative control siRNA (NC siRNA) or STAT3-targeting siRNA #7. After 72 hrs of transfection, cells were harvested and analyzed for total (T) STAT3 and GAPDH protein expression by immunoblotting. […] Cell viability was evaluated using Alamar Blue staining. […]

One compound from article PMC5531494, “Target specificity, in vivo pharmacokinetics, and efficacy of the putative STAT3 inhibitor LY5 in osteosarcoma, Ewing's sarcoma, and rhabdomyosarcoma” (PLoS ONE, 2017) can be followed below.

Take `NS(=O)(=O)c1cccc2c1C(=O)C=C(Nc1cccnc1)C2=O` [LY5, 5,8-dioxo-6-(pyridin-3-ylamino)-5,8-dihydronaphthalene-1-sulfonamide]: the IC50 in the experiment on ES and OS cells fell in the range of 1.4 to 5.1 µM. Besides, in experiment [1], the “response to LY5 (cell viability) with or without STAT3 depletion” value was “comparable”.

In general, IC50 refers to the concentration needed to halve the response being measured. The low end stands for greater potency in that assay, the high end for weaker potency in that assay.
